According to ChEMBL document CHEMBL5252628, “Novel xanthone antibacterials: Semi-synthesis, biological evaluation, and the action mechanisms” (Bioorg Med Chem, 2023):
Values after ≈ are worked out from the molar mass of the structure shown. Active and inactive are the calls of the source. No cut-off for these calls is given here. Where a SMILES comes first, the peptide text is derived from it. [ ]: non-standard residue; d: D form. Orn = NCCC[C@H](N)C(=O)O

Assays:
Escherichia coli = assay: Antibacterial activity against Escherichia coli ATCC 25922 assessed as inhibition of bacterial growth incubated for 18 to 24 hrs by broth microdilution assay; assay type: functional; conditions: time 18-24 hrs
Staphylococcus aureus [1] = assay: Antibacterial activity against Staphylococcus aureus SH-27 assessed as inhibition of bacterial growth incubated for 18 to 24 hrs by broth microdilution assay; assay type: functional; conditions: time 18-24 hrs
Salmonella enteritidis = assay: Antibacterial activity against Salmonella enteritidis SM012 assessed as inhibition of bacterial growth incubated for 18 to 24 hrs by broth microdilution assay; assay type: functional, Salmonella enterica subsp. enterica serovar Enteritidis; conditions: Salmonella enterica, time 18-24 hrs
[2] = Cytotoxicity against human L02 cells assessed as reduction in cell viability incubated for 72 hrs by CCK-8 assay; assay type: toxicity, cell-based
Staphylococcus aureus [3] = assay: Antibacterial activity against Staphylococcus aureus ATCC 43300 assessed as inhibition of bacterial growth incubated for 18 to 24 hrs by broth microdilution assay; assay type: functional; conditions: time 18-24 hrs
[4] = Cytotoxicity against human A549 cells assessed as reduction in cell viability incubated for 72 hrs by CCK-8 assay; assay type: toxicity, cell-based
Staphylococcus aureus [5] = assay: Antibacterial activity against Staphylococcus aureus ATCC 33591 assessed as inhibition of bacterial growth incubated for 18 to 24 hrs by broth microdilution assay; assay type: functional; conditions: time 18-24 hrs
Staphylococcus aureus [6] = assay: Antibacterial activity against Staphylococcus aureus ATCC 29213 assessed as inhibition of bacterial growth incubated for 18 to 24 hrs by broth microdilution assay; assay type: functional; conditions: time 18-24 hrs
Staphylococcus aureus [7] = assay: Antibacterial activity against methicillin-resistant Staphylococcus aureus 2 assessed as inhibition of bacterial growth incubated for 18 to 24 hrs by broth microdilution assay; assay type: functional; conditions: time 18-24 hrs
[8] = Hemolytic activity in rabbit RBC assessed as hemolysis incubated for 1 hr by microtiter plate method; assay type: toxicity, cell-based, Oryctolagus cuniculus, Erythrocyte; conditions: red blood cells
Staphylococcus aureus [9] = assay: Antibacterial activity against methicillin-resistant Staphylococcus aureus 2 assessed as separation of plasma wall at 5 x MIC incubated for 2 hrs by transmission electron microscopy analysis; assay type: functional, organism-based
Staphylococcus aureus [10] = assay: Antibacterial activity against Staphylococcus aureus ATCC 29213 assessed as separation of plasma wall at 5 x MIC incubated for 2 hrs by transmission electron microscopy analysis; assay type: functional, organism-based
Cell membrane [11] = assay: Induction of cell membrane disruption in methicillin-resistant Staphylococcus aureus 2 assessed as increase in protein leakage at 5 x MIC incubated for 2 hrs by coomassie brilliant blue dye assay; assay type: subcellular
Staphylococcus aureus [12] = assay: Antibacterial activity against Staphylococcus aureus ATCC 29213 assessed as cell wall loosening at 5 x MIC incubated for 2 hrs by transmission electron microscopy analysis; assay type: functional, organism-based
Staphylococcus aureus [13] = assay: Antibacterial activity against methicillin-resistant Staphylococcus aureus 2 assessed as blurred space in cytoplasm and cell wall at 5 x MIC incubated for 2 hrs by transmission electron microscopy analysis; assay type: functional, organism-based
Staphylococcus aureus [14] = assay: Antibacterial activity against methicillin-resistant Staphylococcus aureus 2 assessed as cell wall loosening at 5 x MIC incubated for 2 hrs by transmission electron microscopy analysis; assay type: functional, organism-based
Staphylococcus aureus [15] = assay: Antibacterial activity against Staphylococcus aureus ATCC 29213 assessed as appearance of cell round pellet at 5 x MIC incubated for 2 hrs by transmission electron microscopy analysis; assay type: functional, organism-based
Cell membrane [16] = assay: Induction of cell membrane disruption in Staphylococcus aureus ATCC 29213 assessed as increase in protein leakage at 5 x MIC incubated for 2 hrs by coomassie brilliant blue dye assay; assay type: subcellular
Staphylococcus aureus [17] = assay: Antibacterial activity against methicillin-resistant Staphylococcus aureus 2 assessed as appearance of cell round pellet at 5 x MIC incubated for 2 hrs by transmission electron microscopy analysis; assay type: functional, organism-based
Staphylococcus aureus [18] = assay: Antibacterial activity against Staphylococcus aureus ATCC 29213 assessed as blurred space in cytoplasm and cell wall at 5 x MIC incubated for 2 hrs by transmission electron microscopy analysis; assay type: functional, organism-based
A549 = assay: Cytotoxicity against human A549 cells assessed as reduction in cell viability at 25 ug/ml incubated for 72 hrs by CCK-8 assay; assay type: toxicity, cell-based; conditions: a549, 72 h, dose 25 µg/ml
Staphylococcus aureus [19] = assay: Bactericidal activity against Staphylococcus aureus ATCC 29213 assessed as reduction in colony forming unit at 4 times MIC measured after 4 hrs by time kill assay; assay type: functional
Staphylococcus aureus [20] = assay: Antibacterial activity Staphylococcus aureus ATCC 29213 infected BALB/c mouse assessed as TNF-alpha cytokine level at 50 to 100 mg/kg,iv measured on day 1 and 3 after infection; assay type: functional, organism-based; conditions: dose 50-100 mg/kg
Staphylococcus aureus [21] = assay: Bactericidal activity against methicillin-resistant Staphylococcus aureus 2 assessed as reduction in colony forming unit at 1 to 8 times MIC incubated for 18 to 24 hrs by time kill assay; assay type: functional, organism-based; conditions: time 18-24 hrs
Staphylococcus aureus [22] = assay: Bactericidal activity against Staphylococcus aureus ATCC 29213 assessed as reduction in colony forming unit at 1 to 8 times MIC incubated for 18 to 24 hrs by time kill assay; assay type: functional, organism-based; conditions: time 18-24 hrs
Staphylococcus aureus [23] = assay: Antibacterial activity Staphylococcus aureus ATCC 29213 infected BALB/c mouse assessed as decrease in volume of skin abscess at 50 to 100 mg/kg,iv measured on day 1 and 3 after infection; assay type: functional, organism-based; conditions: dose 50-100 mg/kg
Staphylococcus aureus [24] = assay: Antibacterial activity Staphylococcus aureus ATCC 29213 infected BALB/c mouse assessed as decrease in degree of lesion at 50 to 100 mg/kg,iv measured on day 1 and 3 after infection by hematoxylin and eosin staining based assay; assay type: functional, organism-based; conditions: dose 50-100 mg/kg
Cell membrane [25] = assay: Induction of cell membrane disruption in Staphylococcus aureus ATCC 29213 assessed as increase in intracellular vanomycin content at 10 x MIC incubated for 2 hrs by UPLC analysis
Cell membrane [26] = assay: Induction of cell membrane permeability in methicillin-resistant Staphylococcus aureus 2 at 5 x MIC incubated for 2 hrs by TO-PRO-3 reagent flow cytometry assay; assay type: subcellular
Cell membrane [27] = assay: Induction of membrane depolarization in methicillin-resistant Staphylococcus aureus 2 at 5 x MIC incubated for 2 hrs by DiOC23 dye based based flow cytometry; assay type: subcellular
Staphylococcus aureus [28] = assay: Antibacterial activity Staphylococcus aureus ATCC 29213 infected BALB/c mouse assessed as increase in skin thickness at 50 to 100 mg/kg,iv measured on day 1 and 3 after infection by hematoxylin and eosin staining based assay; assay type: functional, organism-based; conditions: dose 50-100 mg/kg
Staphylococcus aureus [29] = assay: Inhibition of biofilm formation in Staphylococcus aureus ATCC 29213 at 4 to 16 microg/ml incubated for 18 to 24 hrs by crystal violet staining based assay; assay type: functional, organism-based; conditions: dose 4-16 µg/ml, time 18-24 hrs
Staphylococcus aureus [30] = assay: Antibacterial activity Staphylococcus aureus ATCC 29213 infected BALB/c mouse assessed as reduction in bacterial burden at 50 to 100 mg/kg,iv measured on day 1 and 3 after infection; assay type: functional, organism-based; conditions: dose 50-100 mg/kg
Staphylococcus aureus [31] = assay: Antibacterial activity against Staphylococcus aureus ATCC 29213 assessed as appearance of circular vesicles at 5 x MIC incubated for 2 hrs by transmission electron microscopy analysis; assay type: functional, organism-based
Staphylococcus aureus [32] = assay: Inhibition of biofilm formation in methicillin-resistant Staphylococcus aureus 2 at 1 times MIC incubated for 18 to 24 hrs by crystal violet staining based assay; assay type: functional; conditions: time 18-24 hrs
Cell membrane [33] = assay: Induction of cell membrane permeability in Staphylococcus aureus ATCC 29213 at 5 x MIC incubated for 2 hrs by TO-PRO-3 reagent flow cytometry assay; assay type: subcellular
Staphylococcus aureus [34] = assay: Antibacterial activity Staphylococcus aureus ATCC 29213 infected BALB/c mouse assessed as IL-1beta cytokine level at 50 to 100 mg/kg,iv measured on day 1 and 3 after infection; assay type: functional, organism-based; conditions: dose 50-100 mg/kg
Staphylococcus aureus [35] = assay: Inhibition of biofilm formation in Staphylococcus aureus ATCC 29213 at 1 times MIC incubated for 18 to 24 hrs by crystal violet staining based assay; assay type: functional; conditions: time 18-24 hrs
Cell membrane [36] = assay: Disruption of membrane integrity in Staphylococcus aureus ATCC 29213 assessed as cell membrane damage at 5 x MIC incubated for 2 hrs by propidium iodide staining based assay; assay type: subcellular
Staphylococcus aureus [37] = assay: Bactericidal activity against methicillin-resistant Staphylococcus aureus 2 assessed as reduction in colony forming unit at 4 times MIC measured after 4 hrs by time kill assay; assay type: functional
Staphylococcus aureus [38] = assay: Antibacterial activity against methicillin-resistant Staphylococcus aureus 2 assessed as appearance of circular vesicles at 5 x MIC incubated for 2 hrs by transmission electron microscopy analysis; assay type: functional, organism-based
Cell membrane [39] = assay: Induction of membrane depolarization in Staphylococcus aureus ATCC 29213 at 5 x MIC incubated for 2 hrs by DiOC23 dye based based flow cytometry; assay type: subcellular
Staphylococcus aureus [40] = assay: Inhibition of biofilm formation in methicillin-resistant Staphylococcus aureus 2 at 4 to 16 microg/ml incubated for 18 to 24 hrs by crystal violet staining based assay; assay type: functional, organism-based; conditions: dose 4-16 µg/ml, time 18-24 hrs
Cell membrane [41] = assay: Disruption of membrane integrity in Staphylococcus aureus ATCC 29213 assessed as cell membrane damage at 5 x MIC incubated for 2 hrs by DAPI staining based assay
Staphylococcus aureus [42] = assay: Induction of drug resistance in Staphylococcus aureus ATCC 29213 assessed as fold increase in MIC measured after 20 passage; assay type: functional

For COc1c(OC(C)=O)cc2oc3cc(O)c(CC=C(C)C)c(O)c3c(=O)c2c1CC=C(C)C, the MIC (Escherichia coli) was > 256 µg/mL, the MIC (Staphylococcus aureus [1]) was 2 µg/mL (≈ 4.42 µM) and the MIC (Salmonella enteritidis) was > 256 µg/mL. For the same compound, the IC50 at 72 h [2] was 13.2 µg/mL (≈ 29.2 µM), the MIC (Staphylococcus aureus [3]) was 2 µg/mL (≈ 4.42 µM) and the IC50 at 72 h [4] was 17.5 µg/mL (≈ 38.7 µM). It also gave an MIC (Staphylococcus aureus [5]) of 2 µg/mL (≈ 4.42 µM), an MIC (Staphylococcus aureus [6]) of 4 µg/mL (≈ 8.84 µM) and an MIC (Staphylococcus aureus [7]) of 2 µg/mL (≈ 4.42 µM). For the same compound, the HC50 at 1 h [8] was > 500 µg/mL.
With CC(C)C[C@@H]1NC(=O)[C@H](CCCN)NC(=O)[C@H](C(C)C)NC(=O)[C@@H]2CCCN2C(=O)[C@@H](Cc2ccccc2)NC(=O)[C@H](CC(C)C)NC(=O)[C@H](CCCN)NC(=O)[C@H](C(C)C)NC(=O)[C@@H]2CCCN2C(=O)[C@@H](Cc2ccccc2)NC1=O (cyclo(V[Orn]L[dF]PV[Orn]L[dF]P)) the Activity (Staphylococcus aureus [9]) was “Active”, the Activity (Staphylococcus aureus [10]) was “Active” and the Activity (Cell membrane [11]) was “Active”. The Activity (Staphylococcus aureus [12]) was “Active”, the Activity (Staphylococcus aureus [13]) was “Active” and the Activity (Staphylococcus aureus [14]) was “Active”. For the same compound, the Activity (Staphylococcus aureus [15]) was “Active”, the Activity (Cell membrane [16]) was “Active” and the Activity (Staphylococcus aureus [17]) was “Active”. The Activity (Staphylococcus aureus [18]) was “Active”.
With COc1c(O)cc2oc3cc(O)c(CC=C(C)C)c(OC(C)=O)c3c(=O)c2c1CC=C(C)C the Activity (A549) was “Non-Toxic”, the MIC (Escherichia coli) was > 256 µg/mL and the Activity (Staphylococcus aureus [19]) was 4.57 log10CFU. The Activity (Staphylococcus aureus [20]) was “Active”, the Activity (Staphylococcus aureus [21]) was “Active” and the Activity (Staphylococcus aureus [22]) was “Active”. For the same compound, the Activity (Staphylococcus aureus [23]) was “Dose-Dependent Effect”, the Activity (Staphylococcus aureus [9]) was “Active” and the MIC (Staphylococcus aureus [1]) was 2 µg/mL (≈ 4.42 µM). The Activity (Staphylococcus aureus [24]) was “Active”, the Activity (Cell membrane [25]) was “Active” and the Activity (Staphylococcus aureus [10]) was “Active”. For the same compound, the MIC (Salmonella enteritidis) was > 256 µg/mL, the Activity (Cell membrane [26]) was 100% and the Activity (Cell membrane [27]) was “Active”. The Activity (Staphylococcus aureus [28]) was “Active”, the Activity (Cell membrane [11]) was “Active” and the Activity (Staphylococcus aureus [12]) was “Active”. For the same compound, the Activity (Staphylococcus aureus [13]) was “Active”, the IC50 at 72 h [2] was 22.1 µg/mL (≈ 48.8 µM) and the inhibition (Staphylococcus aureus [29]) was “Dose-Dependent Effect”. For the same compound, the Activity (Staphylococcus aureus [30]) was “Active”, the Activity (Staphylococcus aureus [14]) was “Active” and the MIC (Staphylococcus aureus [3]) was 1 µg/mL (≈ 2.21 µM). For the same compound, the Activity (Staphylococcus aureus [31]) was “Active”, the “inhibition (INH)” value (Staphylococcus aureus [32]) was 98% and the Activity (Cell membrane [33]) was 100%. For the same compound, the Activity (Staphylococcus aureus [34]) was “Active”, the Activity (Cell membrane [16]) was “Active” and the “inhibition (INH)” value (Staphylococcus aureus [35]) was 90%. For the same compound, the Activity (Cell membrane [36]) was “Active”, the Activity (Staphylococcus aureus [37]) was 3.72 log10CFU and the MIC (Staphylococcus aureus [5]) was 1 µg/mL (≈ 2.21 µM). The Activity (Staphylococcus aureus [38]) was “Active”, the Activity (Cell membrane [39]) was “Active” and the Activity (Staphylococcus aureus [18]) was “Active”. The inhibition (Staphylococcus aureus [40]) was “Dose-Dependent Effect”, the MIC (Staphylococcus aureus [6]) was 4 µg/mL (≈ 8.84 µM) and the Activity (Cell membrane [41]) was “Active”. The MIC (Staphylococcus aureus [7]) was 4 µg/mL (≈ 8.84 µM), the Activity (Staphylococcus aureus [42]) was “inactive” and the HC50 at 1 h [8] was 6.3 µg/mL.
